Assay results as given in patent publication US20230310428A1, “EGFR INHIBITOR AND PREPARATION METHOD AND USE THEREOF” (HONGYUN BIOTECH CO., LTD., priority 2020, published 2023).

Assays:
Assay in all cases: Growth inhibitory activity of compounds on BaF3 cell lines stably transfected with kinase (MTS, 48 h)
Assay type in all cases: cell-based
[1] = molecular target: T1, various mutants of kinase EGFR (BaF3 cell lines stably transfected with kinase) (Homo sapiens, UniProt P00533); conditions: BaF3 cell line stably transfected with EGFR Δ19Del, read-out: Δ19Del growth inhibitory activity IC50
T1 construct: other: BaF3 cells stably transfected with EGFR Δ19Del; MTS, 48 h; other: BaF3 cell line stably transfected with EGFR Δ19Del
T1 sequence (P00533 with tags, fused parts or gaps DEL746-750): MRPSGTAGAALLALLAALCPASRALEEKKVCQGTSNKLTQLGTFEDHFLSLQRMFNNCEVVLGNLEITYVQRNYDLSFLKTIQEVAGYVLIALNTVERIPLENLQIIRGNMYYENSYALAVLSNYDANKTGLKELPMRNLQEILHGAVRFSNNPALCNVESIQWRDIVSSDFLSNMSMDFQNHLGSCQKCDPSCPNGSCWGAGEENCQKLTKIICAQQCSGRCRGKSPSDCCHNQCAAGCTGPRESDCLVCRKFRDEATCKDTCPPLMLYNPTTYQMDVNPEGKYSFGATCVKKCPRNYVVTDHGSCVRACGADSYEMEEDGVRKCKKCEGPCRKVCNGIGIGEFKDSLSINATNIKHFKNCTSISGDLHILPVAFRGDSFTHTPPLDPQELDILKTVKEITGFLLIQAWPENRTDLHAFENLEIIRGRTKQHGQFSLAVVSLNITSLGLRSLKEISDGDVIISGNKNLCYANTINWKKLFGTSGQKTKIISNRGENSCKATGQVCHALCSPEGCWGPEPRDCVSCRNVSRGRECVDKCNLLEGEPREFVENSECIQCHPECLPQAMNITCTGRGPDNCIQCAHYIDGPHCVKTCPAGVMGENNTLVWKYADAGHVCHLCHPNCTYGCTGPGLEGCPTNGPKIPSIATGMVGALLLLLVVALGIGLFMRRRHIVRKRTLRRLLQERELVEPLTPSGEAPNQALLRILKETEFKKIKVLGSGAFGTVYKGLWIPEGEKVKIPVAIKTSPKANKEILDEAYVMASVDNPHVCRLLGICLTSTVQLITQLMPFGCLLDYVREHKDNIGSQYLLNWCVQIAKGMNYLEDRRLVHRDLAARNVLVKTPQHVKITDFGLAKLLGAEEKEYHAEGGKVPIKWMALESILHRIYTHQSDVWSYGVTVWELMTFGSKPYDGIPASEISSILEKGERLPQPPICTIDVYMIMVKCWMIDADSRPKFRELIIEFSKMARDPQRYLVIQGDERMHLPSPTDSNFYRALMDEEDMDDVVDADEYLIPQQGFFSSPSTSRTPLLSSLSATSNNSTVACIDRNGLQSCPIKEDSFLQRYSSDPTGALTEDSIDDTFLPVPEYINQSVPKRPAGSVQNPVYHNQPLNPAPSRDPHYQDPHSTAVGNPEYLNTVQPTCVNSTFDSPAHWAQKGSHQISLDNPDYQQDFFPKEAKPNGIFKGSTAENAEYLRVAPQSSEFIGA
Outline: (§1)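 Cells in DMEM or RPMI 1640 with 10% FBS were exposed to compound at 8 concentrations (top 10 µM, 1/3 steps, 0.1% DMSO) for 48 h at 37 °C, 5% CO2. MTS/PES was then added for 1-4 h and OD490 read; IC50 was fitted from growth inhibition versus 0.1% DMSO control.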

[2] = molecular target: T2, various mutants of kinase EGFR (BaF3 cell lines stably transfected with kinase) (Homo sapiens, UniProt P00533, C797S/L858R/T790M); conditions: BaF3 cell line stably transfected with EGFR L858R/T790M/C797S, read-out: L858R/T790M/ C797S growth inhibitory activity IC50
T2 construct: expressed in transfected cells; host or cells: BaF3
Outline: as §1

[3] = molecular target: T3, various mutants of kinase EGFR (BaF3 cell lines stably transfected with kinase) (Homo sapiens, UniProt P00533, L858R); conditions: BaF3 cell line stably transfected with EGFR L858R, read-out: L858R growth inhibitory activity IC50
T3 construct: expressed in transfected cells; host or cells: BaF3
T3 sequence (P00533 25-1210 L858R): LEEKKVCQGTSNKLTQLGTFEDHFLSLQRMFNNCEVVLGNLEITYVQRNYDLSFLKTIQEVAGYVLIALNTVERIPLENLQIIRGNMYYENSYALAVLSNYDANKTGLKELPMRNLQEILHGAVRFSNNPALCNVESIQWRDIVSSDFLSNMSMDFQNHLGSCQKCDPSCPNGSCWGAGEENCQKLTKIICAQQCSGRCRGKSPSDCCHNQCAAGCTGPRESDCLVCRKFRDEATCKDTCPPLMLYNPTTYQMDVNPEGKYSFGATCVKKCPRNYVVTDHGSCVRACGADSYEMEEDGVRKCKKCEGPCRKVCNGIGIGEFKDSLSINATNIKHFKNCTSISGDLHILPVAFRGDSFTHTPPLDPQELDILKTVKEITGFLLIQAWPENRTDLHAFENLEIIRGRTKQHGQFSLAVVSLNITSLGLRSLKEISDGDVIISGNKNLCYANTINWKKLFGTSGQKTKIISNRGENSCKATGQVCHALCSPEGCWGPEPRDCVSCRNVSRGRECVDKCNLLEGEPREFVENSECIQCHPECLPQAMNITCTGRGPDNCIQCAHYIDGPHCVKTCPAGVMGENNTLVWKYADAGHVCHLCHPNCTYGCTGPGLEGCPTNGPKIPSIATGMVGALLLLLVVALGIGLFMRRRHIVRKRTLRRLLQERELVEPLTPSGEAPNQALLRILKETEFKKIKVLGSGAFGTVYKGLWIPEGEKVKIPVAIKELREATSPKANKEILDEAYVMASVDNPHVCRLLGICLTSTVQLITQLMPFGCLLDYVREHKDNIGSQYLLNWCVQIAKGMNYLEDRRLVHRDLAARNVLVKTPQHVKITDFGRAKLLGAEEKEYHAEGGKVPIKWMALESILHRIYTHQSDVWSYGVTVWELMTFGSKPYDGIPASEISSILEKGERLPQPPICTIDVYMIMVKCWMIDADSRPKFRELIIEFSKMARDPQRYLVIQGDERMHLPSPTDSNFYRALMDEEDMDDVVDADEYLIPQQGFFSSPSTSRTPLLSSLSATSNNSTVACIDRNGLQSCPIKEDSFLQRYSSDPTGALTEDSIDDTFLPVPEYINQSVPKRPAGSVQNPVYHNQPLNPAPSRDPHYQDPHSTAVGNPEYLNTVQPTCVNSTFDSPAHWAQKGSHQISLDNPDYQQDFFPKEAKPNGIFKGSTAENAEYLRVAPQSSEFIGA
Outline: as §1

[4] = molecular target: T4, various mutants of kinase EGFR (BaF3 cell lines stably transfected with kinase) (Homo sapiens, UniProt P00533, L858R/T790M); conditions: BaF3 cell line stably transfected with EGFR L858R/T790M, read-out: L858R/ T790M growth inhibitory activity IC50
T4 construct: expressed in transfected cells; host or cells: BaF3
T4 sequence (P00533 25-1210 T790M/L858R): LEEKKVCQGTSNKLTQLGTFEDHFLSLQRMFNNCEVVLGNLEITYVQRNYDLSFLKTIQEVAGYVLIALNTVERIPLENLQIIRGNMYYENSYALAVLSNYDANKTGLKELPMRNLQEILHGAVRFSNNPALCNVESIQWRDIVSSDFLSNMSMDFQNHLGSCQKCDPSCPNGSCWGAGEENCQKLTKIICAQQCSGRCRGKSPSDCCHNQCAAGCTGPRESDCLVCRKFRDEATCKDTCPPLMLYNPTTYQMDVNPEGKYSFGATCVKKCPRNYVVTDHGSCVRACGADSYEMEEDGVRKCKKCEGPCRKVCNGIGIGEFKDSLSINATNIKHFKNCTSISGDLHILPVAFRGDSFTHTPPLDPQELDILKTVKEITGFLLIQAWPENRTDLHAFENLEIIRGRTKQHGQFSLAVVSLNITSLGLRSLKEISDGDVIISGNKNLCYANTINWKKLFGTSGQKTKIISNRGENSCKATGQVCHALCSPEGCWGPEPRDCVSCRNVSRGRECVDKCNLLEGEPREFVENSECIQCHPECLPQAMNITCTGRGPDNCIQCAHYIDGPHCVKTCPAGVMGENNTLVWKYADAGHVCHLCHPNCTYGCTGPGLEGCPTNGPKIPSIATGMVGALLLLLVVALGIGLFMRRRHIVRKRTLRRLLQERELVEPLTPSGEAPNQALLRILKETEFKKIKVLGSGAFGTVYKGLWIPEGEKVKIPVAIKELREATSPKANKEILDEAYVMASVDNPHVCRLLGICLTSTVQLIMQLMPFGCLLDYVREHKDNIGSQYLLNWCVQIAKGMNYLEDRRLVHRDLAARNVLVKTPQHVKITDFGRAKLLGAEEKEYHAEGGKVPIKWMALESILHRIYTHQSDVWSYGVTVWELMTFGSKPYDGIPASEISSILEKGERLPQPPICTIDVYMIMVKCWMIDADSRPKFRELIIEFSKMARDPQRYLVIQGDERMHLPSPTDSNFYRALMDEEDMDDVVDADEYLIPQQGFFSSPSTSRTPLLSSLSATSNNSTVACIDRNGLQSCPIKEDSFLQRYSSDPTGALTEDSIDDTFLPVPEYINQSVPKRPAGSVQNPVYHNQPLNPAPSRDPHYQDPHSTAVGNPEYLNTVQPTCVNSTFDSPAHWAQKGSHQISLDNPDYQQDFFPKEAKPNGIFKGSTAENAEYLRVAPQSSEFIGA
Outline: as §1

[5] = molecular target: T5, various mutants of kinase EGFR (BaF3 cell lines stably transfected with kinase) (Homo sapiens, UniProt P00533, T790M/C797S, form not given); conditions: BaF3 cell line stably transfected with EGFR Δ19Del/T790M/C797S, read-out: Δ19Del/T790M/ C797S growth inhibitory activity IC50
T5 construct: other: BaF3 cells stably transfected with EGFR Δ19Del/T790M/C797S; MTS, 48; other: BaF3 cell line stably transfected with EGFR Δ19Del/T790M/C7
Outline: as §1

[6] = molecular target: T6, various mutants of kinase EGFR (BaF3 cell lines stably transfected with kinase) (Homo sapiens, UniProt P00533, T790M, form not given); conditions: BaF3 cell line stably transfected with EGFR Δ19Del/T790M, read-out: Δ19Del/ T790M growth inhibitory activity IC50
T6 construct: other: BaF3 cells stably transfected with EGFR Δ19Del/T790M; MTS, 48 h; other: BaF3 cell line stably transfected with EGFR Δ19Del/T790M; MTS, 48
T6 sequence (P00533 with tags, fused parts or gaps DEL746-750/T790M, form open): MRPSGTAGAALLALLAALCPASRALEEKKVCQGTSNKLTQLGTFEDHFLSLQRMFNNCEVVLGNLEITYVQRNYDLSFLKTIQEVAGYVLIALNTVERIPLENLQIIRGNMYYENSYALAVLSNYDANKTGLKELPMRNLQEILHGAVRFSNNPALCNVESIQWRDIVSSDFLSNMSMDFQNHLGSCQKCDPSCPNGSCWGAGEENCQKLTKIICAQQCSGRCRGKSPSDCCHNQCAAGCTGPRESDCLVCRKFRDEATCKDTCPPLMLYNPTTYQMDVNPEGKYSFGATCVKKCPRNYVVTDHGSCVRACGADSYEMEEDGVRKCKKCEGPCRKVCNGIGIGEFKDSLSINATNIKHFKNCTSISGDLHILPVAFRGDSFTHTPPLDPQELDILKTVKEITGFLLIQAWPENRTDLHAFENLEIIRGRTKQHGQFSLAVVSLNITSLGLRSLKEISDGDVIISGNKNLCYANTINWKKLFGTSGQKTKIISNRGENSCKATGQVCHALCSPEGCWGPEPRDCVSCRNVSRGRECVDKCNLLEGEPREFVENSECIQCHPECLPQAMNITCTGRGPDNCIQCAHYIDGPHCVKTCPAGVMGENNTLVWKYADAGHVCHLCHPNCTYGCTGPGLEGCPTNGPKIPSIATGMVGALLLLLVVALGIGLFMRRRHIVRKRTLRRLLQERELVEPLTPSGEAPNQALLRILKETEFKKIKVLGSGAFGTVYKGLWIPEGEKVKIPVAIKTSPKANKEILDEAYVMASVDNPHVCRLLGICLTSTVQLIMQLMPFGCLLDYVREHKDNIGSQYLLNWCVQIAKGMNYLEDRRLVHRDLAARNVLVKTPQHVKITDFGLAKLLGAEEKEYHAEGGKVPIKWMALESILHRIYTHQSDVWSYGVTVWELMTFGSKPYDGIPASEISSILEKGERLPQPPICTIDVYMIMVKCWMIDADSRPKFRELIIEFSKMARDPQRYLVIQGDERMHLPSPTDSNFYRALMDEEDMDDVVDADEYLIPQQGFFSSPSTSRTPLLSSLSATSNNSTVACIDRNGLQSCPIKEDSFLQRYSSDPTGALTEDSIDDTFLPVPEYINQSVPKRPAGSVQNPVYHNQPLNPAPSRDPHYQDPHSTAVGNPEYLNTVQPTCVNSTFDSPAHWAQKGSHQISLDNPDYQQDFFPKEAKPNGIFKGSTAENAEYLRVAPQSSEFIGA
Outline: as §1

Compound	IC50 [1] [nM]	IC50 [2] [nM]	IC50 [3] [nM]	IC50 [4] [nM]	IC50 [5] [nM]	IC50 [6] [nM]
CCc1cnc(Nc2cc(N3CCC(O)CC3)ccc2OC)nc1Nc1ccc2nccnc2c1N(C)S(C)(=O)=O [Compound I-363]	≤ 50	≤ 50	≤ 50	≤ 50	≤ 50	50 to 500
COc1ccc(N2CCC(O)CC2)cc1Nc1ncc(C(C)C)c(Nc2ccc3nccnc3c2N(C)S(C)(=O)=O)n1 [Compound I-364]	≤ 50	≤ 50	50 to 500	50 to 500	50 to 500	≤ 50
COc1ccc(N2CCC(O)CC2)cc1Nc1ncc(C2CC2)c(Nc2ccc3nccnc3c2N(C)S(C)(=O)=O)n1 [Compound I-365]	50 to 500	≤ 50	≤ 50	≤ 50	≤ 50	50 to 500
COc1ccc(N2CCC(O)CC2)cc1Nc1ncc(OC)c(Nc2ccc3nccnc3c2N(C)S(C)(=O)=O)n1 [Compound I-366]	50 to 500	≤ 50	50 to 500	≤ 50	≤ 50	50 to 500
COc1ccc(N2CCC(O)CC2)cc1Nc1ncc(F)c(Nc2ccc3nccnc3c2N(C)S(C)(=O)=O)n1 [Compound I-367]	500 to 2500	50 to 500	500 to 2500	500 to 2500	50 to 500	500 to 2500
COc1ccc(N2CCC(O)CC2)cc1Nc1ncc(Cl)c(Nc2ccc3nccnc3c2N(C)S(C)(=O)=O)n1 [Compound I-368]	50 to 500	≤ 50	50 to 500	≤ 50	≤ 50	50 to 500
COc1ccc(N2CCC(O)CC2)cc1Nc1ncc(C(F)(F)F)c(Nc2ccc3nccnc3c2N(C)S(C)(=O)=O)n1 [Compound I-369]	50 to 500	≤ 50	50 to 500	≤ 50	≤ 50	≤ 50
COc1ccc(N2CCC(O)CC2)cc1Nc1ncc(Cl)c(Nc2ccc3nccnc3c2N(C)S(=O)(=O)C(F)(F)F)n1 [Compound I-370]	500 to 2500	≤ 50	50 to 500	50 to 500	≤ 50	500 to 2500
COc1ccc(N2CCC(O)CC2)cc1Nc1ncc(Br)c(Nc2ccc3nccnc3c2N(C)S(=O)(=O)C(F)(F)F)n1 [Compound I-371]	500 to 2500	≤ 50	50 to 500	50 to 500	≤ 50	50 to 500
CCS(=O)(=O)N(C)c1c(Nc2nc(Nc3cc(N4CCC(O)CC4)ccc3OC)ncc2Cl)ccc2nccnc12 [Compound I-372]	50 to 500	≤ 50	≤ 50	≤ 50	≤ 50	50 to 500
COc1ccc(N2CCC(O)CC2)cc1Nc1ncc(F)c(Nc2ccc3nccnc3c2N(C)S(=O)(=O)C2CC2)n1 [Compound I-373]	500 to 2500	500 to 2500	50 to 500	500 to 2500	50 to 500	500 to 2500
COc1ccc(N2CCC(O)CC2)cc1Nc1ncc(Cl)c(Nc2ccc3nccnc3c2N(C)S(=O)(=O)C2CC2)n1 [Compound I-374]	50 to 500	≤ 50	50 to 500	50 to 500	≤ 50	50 to 500
COc1ccc(N2CCC(O)CC2)cc1Nc1ncc(Br)c(Nc2ccc3nccnc3c2N(C)S(=O)(=O)C2CC2)n1 [Compound I-375]	≤ 50	≤ 50	≤ 50	≤ 50	≤ 50	≤ 50
COc1ccc(N2CCC(O)CC2)cc1Nc1ncc(Br)c(Nc2ccc3nccnc3c2N(C)S(=O)(=O)C(C)C)n1 [Compound I-376]	50 to 500	≤ 50	50 to 500	≤ 50	≤ 50	50 to 500
CCN(c1c(Nc2nc(Nc3cc(N4CCC(O)CC4)ccc3OC)ncc2Cl)ccc2nccnc12)S(C)(=O)=O [Compound I-377]	≤ 50	≤ 50	≤ 50	≤ 50	≤ 50	≤ 50
